Laboratory results taken from ChEMBL document CHEMBL1201862, “PubChem BioAssay data set” (2004).
The source made the active and inactive calls. Unless noted, no cut-off for these calls is given here.

Columns and labels:
NADPH oxidase 1 [1] = biological target: T1, NADPH oxidase 1 (Homo sapiens, UniProt Q9Y5S8); type: functional, cell-based
T1 sequence (Q9Y5S8 whole entry): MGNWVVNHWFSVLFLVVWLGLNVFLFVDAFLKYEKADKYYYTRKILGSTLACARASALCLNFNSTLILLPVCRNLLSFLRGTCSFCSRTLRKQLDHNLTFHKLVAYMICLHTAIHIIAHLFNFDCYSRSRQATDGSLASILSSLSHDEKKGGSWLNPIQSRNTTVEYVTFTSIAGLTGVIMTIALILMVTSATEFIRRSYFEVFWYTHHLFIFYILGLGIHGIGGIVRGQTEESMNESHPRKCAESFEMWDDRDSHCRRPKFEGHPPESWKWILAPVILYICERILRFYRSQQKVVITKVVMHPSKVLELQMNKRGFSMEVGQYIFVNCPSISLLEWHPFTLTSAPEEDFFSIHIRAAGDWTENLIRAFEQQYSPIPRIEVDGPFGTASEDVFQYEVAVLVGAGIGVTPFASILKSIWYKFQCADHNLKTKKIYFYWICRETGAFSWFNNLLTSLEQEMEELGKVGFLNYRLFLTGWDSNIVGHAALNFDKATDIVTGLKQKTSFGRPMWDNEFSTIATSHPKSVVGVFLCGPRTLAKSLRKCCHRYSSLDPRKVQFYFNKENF

[2] = biological target: Muscarinic acetylcholine receptor M4 (Rattus norvegicus, UniProt P08485); assay: potentiation of ACh calcium response at rM4 – cell-based, CHO-K1 rat M4/Gqi5, Fluo-4 calcium, ACh EC20, selectivity assay for M1 muscarinic PAM project, dose response (AID 2438); type: functional
[3] = biological target: Muscarinic acetylcholine receptor M3 (Homo sapiens, UniProt P20309); assay: potentiation of ACh response at M3 – cell-based, CHO-K1 hM3, Fluo-4 calcium, ACh EC20, selectivity assay for M1 PAM project, dose response (AID 2428); type: functional
[4] = biological target: Muscarinic acetylcholine receptor M1 (Rattus norvegicus, UniProt P08482); assay: concentration-dependent potentiation of ACh at M1 – cell-based, calcium mobilization, CHO-K1, ACh EC20, dose response (AID 2425); type: functional
[5] = biological target: Epstein-Barr nuclear antigen 1 (Epstein-Barr virus (strain B95-8) (HHV-4) (Human herpesvirus 4), UniProt P03211); assay: inhibition of EBV nuclear antigen 1 DNA binding – biochemical, fluorescence polarization, 1536-well, dose response (AID 2381); parameters: species or system human gammaherpesvirus 4;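 note: fluorescence polarization of a Cy5 DNA probe bound by EBNA-1 protein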
[6] = biological target: Lytic switch protein BZLF1 (Epstein-Barr virus (strain B95-8) (HHV-4) (Human herpesvirus 4), UniProt P03206); assay: inhibition of BZLF1 ZTA DNA binding – biochemical, fluorescence polarization, Epstein-Barr virus, 1536-well, counter-screen for EBNA-1 inhibitor project, dose response (AID 2377); parameters: species or system human gammaherpesvirus 4;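 note: fluorescence polarization of Cy5-labelled ZRE DNA probe bound by purified Zta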
Estrogen receptor = Estrogen receptor (Homo sapiens, UniProt P03372); assay: ERα coactivator recruitment enhancers – biochemical, TR-FRET, ERα LBD, dose response (AID 737)
[7] = biological target: Induced myeloid leukemia cell differentiation protein Mcl-1 (Homo sapiens, UniProt Q07820); type: functional
NADPH oxidase 1 [8] = biological target: T1, NADPH oxidase 1; assay: Luminescence-based cell-based dose response assay to identify inhibitors of NADPH oxidase 1 (NOX1).; type: functional
[9] = biological target: T2, Neuropeptide Y receptor type 1 (Homo sapiens, UniProt P25929); type: functional;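 for IC50: HEK293 cells with a CNG channel challenged with NPY then isoproterenol; potency as antagonist that reverses NPY suppression of cAMP signal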
T2 sequence (P25929 whole entry): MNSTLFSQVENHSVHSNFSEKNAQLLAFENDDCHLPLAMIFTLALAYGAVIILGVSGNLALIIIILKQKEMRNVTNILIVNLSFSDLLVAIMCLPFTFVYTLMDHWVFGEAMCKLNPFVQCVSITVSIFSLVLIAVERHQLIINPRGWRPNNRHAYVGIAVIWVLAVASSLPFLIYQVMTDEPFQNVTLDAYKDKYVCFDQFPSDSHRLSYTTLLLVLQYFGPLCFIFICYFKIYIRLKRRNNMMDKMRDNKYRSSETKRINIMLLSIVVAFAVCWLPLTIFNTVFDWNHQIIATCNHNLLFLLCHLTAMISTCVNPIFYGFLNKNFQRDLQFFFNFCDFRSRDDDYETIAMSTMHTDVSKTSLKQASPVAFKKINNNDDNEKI

[10] = biological target: T3, Neuropeptide Y receptor type 2 (Homo sapiens, UniProt P49146); type: functional, cell-based;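 for IC50: HEK293 cells expressing the receptor and a CNG channel; stimulus was NPY near EC95 followed by isoproterenol to raise cAMP; antagonist potency measured as restoring cAMP signal that NPY suppresses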
T3 sequence (P49146 whole entry): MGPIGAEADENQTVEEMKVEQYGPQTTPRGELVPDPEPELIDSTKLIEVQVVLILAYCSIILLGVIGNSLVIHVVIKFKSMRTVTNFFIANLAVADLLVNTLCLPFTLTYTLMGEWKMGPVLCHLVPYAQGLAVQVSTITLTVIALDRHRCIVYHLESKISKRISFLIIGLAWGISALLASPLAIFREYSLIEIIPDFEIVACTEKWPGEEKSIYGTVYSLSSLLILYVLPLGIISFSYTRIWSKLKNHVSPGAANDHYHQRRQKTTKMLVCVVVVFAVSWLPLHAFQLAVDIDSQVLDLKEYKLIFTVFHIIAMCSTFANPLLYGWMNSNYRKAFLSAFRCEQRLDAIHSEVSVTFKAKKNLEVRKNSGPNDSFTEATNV

[11] = biological target: T3, Neuropeptide Y receptor type 2; assay: Fluorescence-based cell-based high-throughput dose response assay for agonists of NPY-Y2. [Related pubchem assays: 1703 (Screening assay (CNGC inhibitors).), 1359 (Screening assay (NPY-Y2 potentiators or agonists).), 1304 (Screening assay (NPY-Y1 potentiators or agonists).), 1710 (Screening assay (NPY-Y2 agonists).), 1791 (Summary AID.)]; type: functional
HEK293 = assay: Fluorescence-based counterscreen for potentiators or agonists of NPY-Y2: cell-based high-throughput dose response assay to identify inhibitors of cyclic nucleotide gated ion channel (CNGC) activity. In this assay, the parental HEK293 cell line transfected with a cyclic-nucleotide gated ion channel (CNGC)-based cAMP sensor is used to measure inhibition of isoproterenol-induced CNGC activity by test compound.; type: functional; conditions: Homo sapiens;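 note: stimulus is 1 µM isoproterenol at EC100 plus PDE inhibitor Ro 20-1724 at 25 µM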
[12] = biological target: T4, Histone-lysine N-methyltransferase NSD2 (Homo sapiens, UniProt O96028); type: biochemical
T4 sequence (O96028 whole entry): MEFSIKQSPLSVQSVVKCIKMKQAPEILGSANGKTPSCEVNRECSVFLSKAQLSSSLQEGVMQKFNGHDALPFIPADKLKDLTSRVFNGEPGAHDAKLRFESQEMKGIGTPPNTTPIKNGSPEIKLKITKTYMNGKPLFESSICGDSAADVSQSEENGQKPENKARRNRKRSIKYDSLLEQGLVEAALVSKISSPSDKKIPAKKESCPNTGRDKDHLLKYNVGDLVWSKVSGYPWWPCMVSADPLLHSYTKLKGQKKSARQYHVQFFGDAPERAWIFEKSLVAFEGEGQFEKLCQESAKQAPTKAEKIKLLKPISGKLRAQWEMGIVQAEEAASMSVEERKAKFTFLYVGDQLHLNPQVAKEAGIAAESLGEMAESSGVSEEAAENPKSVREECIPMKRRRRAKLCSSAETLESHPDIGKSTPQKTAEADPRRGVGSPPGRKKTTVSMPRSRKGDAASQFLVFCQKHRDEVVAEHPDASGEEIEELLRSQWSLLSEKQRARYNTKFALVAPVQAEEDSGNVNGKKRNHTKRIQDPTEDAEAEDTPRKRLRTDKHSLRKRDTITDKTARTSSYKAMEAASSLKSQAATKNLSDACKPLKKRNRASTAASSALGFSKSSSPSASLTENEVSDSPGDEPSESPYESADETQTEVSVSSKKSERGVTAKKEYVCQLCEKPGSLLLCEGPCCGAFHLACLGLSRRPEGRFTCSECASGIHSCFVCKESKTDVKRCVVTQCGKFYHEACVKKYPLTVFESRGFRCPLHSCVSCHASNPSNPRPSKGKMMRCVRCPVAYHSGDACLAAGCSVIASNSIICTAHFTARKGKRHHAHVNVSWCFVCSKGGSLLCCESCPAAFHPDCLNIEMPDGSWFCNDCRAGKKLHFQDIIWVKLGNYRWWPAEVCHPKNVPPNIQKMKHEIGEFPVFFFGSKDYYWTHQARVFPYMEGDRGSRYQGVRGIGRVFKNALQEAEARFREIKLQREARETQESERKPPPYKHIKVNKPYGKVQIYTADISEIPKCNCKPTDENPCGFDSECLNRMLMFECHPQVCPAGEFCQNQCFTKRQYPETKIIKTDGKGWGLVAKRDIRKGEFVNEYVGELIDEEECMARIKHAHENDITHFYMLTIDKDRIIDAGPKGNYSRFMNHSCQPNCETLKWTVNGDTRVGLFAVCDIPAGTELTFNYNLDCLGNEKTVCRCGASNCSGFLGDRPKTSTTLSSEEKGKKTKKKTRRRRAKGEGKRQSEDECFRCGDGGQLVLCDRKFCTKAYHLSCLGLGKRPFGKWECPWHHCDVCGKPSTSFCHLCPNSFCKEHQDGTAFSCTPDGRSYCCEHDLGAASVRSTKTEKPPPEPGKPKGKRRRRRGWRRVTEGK

[13] = biological target: T3, Neuropeptide Y receptor type 2; assay: Fluorescence-based cell-based high-throughput dose response assay for potentiators or agonists of NPY-Y2. [Related pubchem assays: 1539 (Screening assay (NPY-Y2 potentiators or agonists).), 1703 (Screening assay (CNGC inhibitors).), 1359 (Screening assay (NPY-Y2 potentiators or agonists).), 1304 (Screening assay (NPY-Y1 potentiators or agonists).) …; type: functional
[14] = fluconazole-exposed Candida albicans growth modulators – fluorescence, retest, confirmation (AID 2467); type: functional, cell-based
[15] = biological target: T5, Zinc finger protein mex-5 (Caenorhabditis elegans, UniProt Q9XUB2); assay: potency of MEX-5 RNA-binding blockers – biochemical, C. elegans, fluorescence polarization, dose response (AID 1960)
T5 sequence (Q9XUB2 whole entry): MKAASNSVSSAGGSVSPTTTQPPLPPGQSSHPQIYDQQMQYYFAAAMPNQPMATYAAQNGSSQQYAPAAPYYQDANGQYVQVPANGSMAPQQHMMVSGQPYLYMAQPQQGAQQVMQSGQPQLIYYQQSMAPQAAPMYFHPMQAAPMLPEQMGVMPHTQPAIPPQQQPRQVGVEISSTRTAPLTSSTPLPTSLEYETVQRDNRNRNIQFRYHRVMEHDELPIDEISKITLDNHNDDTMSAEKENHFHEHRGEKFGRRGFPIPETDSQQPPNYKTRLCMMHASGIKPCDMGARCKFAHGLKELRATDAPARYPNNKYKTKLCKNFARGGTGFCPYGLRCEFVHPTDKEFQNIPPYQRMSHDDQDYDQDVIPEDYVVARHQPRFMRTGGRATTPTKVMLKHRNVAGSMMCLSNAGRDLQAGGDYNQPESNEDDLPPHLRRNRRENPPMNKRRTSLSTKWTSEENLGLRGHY

[16] = biological target: T2, Neuropeptide Y receptor type 1; assay: Fluorescence-based counterscreen for agonists of NPY-Y2: cell-based high-throughput dose response assay for agonists of NPY-Y1.; type: functional
[17] = Luminescent dose response cell-based high throughput screening assay for inhibitors of the Janus kinase 2 mutant JAK2V617F. [Related pubchem assays: 1446 (Primary screen.), 1521 (Confirmation assay.), 1486 (Counter screen.)]; type: functional
[18] = biological target: T2, Neuropeptide Y receptor type 1; assay: Fluorescence-based counterscreen for potentiators or agonists of NPY-Y2: cell-based high-throughput dose response assay for potentiators or agonists of NPY-Y1.; type: functional
[19] = biological target: T6, RNA-binding protein pos-1 (Caenorhabditis elegans, UniProt G5EF15); assay: disruptors of C. elegans POS-1 RNA interaction – biochemical, fluorescence polarization, dose response (AID 1964);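 note: purified POS-1 fused to maltose binding protein made in E. coli; potency of compounds blocking POS-1 binding to fluorescent RNA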
T6 sequence (G5EF15 whole entry): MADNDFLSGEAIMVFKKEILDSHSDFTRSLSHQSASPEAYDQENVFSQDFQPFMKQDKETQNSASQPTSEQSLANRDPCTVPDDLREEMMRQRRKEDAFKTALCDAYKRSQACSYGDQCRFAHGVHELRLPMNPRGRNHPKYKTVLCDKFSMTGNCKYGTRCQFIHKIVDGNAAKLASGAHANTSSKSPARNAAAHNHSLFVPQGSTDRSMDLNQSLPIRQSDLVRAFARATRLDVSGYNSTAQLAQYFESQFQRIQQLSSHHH

Nonstructural protein 1 = Nonstructural protein 1 (Influenza A virus, UniProt Q194T2); type: functional, Influenza A virus (A/California/07/2009(H1N1))
[20] = NIH-3T3 fibroblast cytotoxicity, dose response, cytotoxicity control, cell-based, fluorescence, Alamar Blue, secondary assay (AID 2327); type: functional;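 note: NIH-3T3 mouse fibroblasts cultured with fluconazole at 8 µg/mL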

Chain of Muscarinic acetylcholine receptor M4 (P08485 whole entry): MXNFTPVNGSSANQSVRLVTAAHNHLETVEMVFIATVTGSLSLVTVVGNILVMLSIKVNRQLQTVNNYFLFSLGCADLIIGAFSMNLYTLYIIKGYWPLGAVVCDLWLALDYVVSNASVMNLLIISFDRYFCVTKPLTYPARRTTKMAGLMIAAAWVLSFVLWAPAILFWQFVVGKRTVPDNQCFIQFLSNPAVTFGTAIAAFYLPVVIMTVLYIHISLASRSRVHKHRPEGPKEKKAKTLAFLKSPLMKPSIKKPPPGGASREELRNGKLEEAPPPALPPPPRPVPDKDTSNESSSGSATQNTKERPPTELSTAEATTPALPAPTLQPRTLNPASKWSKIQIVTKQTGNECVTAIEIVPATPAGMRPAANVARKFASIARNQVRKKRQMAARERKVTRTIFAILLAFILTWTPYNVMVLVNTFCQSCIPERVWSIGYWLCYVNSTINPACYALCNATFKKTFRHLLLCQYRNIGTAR
Chain of Muscarinic acetylcholine receptor M3 (P20309 whole entry): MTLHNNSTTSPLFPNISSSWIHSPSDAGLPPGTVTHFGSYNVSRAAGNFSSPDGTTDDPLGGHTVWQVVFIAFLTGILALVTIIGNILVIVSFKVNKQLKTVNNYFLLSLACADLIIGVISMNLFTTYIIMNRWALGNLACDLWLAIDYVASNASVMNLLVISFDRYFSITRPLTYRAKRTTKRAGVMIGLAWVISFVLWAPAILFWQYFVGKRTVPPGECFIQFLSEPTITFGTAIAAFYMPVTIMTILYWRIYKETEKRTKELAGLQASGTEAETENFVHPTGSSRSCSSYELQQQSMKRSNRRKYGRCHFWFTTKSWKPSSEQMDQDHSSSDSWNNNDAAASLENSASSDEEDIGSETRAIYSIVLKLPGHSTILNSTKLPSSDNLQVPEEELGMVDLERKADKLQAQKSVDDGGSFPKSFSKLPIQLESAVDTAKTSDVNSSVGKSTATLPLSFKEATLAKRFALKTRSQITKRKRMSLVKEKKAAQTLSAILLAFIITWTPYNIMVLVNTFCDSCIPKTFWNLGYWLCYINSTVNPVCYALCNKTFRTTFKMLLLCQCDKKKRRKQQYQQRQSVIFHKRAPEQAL
Chain of Lytic switch protein BZLF1 (P03206 whole entry, the tested form may be a part): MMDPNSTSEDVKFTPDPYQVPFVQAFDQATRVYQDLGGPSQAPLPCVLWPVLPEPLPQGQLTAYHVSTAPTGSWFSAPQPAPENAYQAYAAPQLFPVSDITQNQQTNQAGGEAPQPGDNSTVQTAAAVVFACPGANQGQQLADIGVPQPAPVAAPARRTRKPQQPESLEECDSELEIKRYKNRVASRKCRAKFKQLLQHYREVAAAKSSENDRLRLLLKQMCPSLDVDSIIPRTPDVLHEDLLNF
Chain of Estrogen receptor (P03372 whole entry, the tested form may be a part): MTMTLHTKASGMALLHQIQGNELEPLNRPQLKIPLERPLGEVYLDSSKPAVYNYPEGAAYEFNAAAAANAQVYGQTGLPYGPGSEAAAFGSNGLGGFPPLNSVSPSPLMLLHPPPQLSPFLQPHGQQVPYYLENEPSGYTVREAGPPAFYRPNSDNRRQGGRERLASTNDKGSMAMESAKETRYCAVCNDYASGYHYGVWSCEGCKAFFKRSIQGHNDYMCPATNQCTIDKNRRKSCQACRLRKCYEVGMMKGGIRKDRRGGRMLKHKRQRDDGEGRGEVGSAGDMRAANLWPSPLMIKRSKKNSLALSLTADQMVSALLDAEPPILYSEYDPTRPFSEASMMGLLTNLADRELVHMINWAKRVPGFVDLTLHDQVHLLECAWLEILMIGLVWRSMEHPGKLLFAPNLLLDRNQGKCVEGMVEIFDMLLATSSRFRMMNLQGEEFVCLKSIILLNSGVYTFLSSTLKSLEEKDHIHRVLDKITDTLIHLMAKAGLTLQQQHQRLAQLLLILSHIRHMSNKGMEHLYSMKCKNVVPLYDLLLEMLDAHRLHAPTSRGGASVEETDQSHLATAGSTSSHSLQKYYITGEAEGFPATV
Chain of Nonstructural protein 1 (Q194T2 whole entry): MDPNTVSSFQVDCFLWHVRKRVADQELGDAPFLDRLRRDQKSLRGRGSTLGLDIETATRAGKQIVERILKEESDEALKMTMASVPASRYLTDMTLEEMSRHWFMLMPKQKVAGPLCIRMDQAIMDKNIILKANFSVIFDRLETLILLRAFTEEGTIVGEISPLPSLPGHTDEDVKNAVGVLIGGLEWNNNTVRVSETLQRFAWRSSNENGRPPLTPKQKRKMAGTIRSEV
Chain of Epstein-Barr nuclear antigen 1 (P03211 whole entry): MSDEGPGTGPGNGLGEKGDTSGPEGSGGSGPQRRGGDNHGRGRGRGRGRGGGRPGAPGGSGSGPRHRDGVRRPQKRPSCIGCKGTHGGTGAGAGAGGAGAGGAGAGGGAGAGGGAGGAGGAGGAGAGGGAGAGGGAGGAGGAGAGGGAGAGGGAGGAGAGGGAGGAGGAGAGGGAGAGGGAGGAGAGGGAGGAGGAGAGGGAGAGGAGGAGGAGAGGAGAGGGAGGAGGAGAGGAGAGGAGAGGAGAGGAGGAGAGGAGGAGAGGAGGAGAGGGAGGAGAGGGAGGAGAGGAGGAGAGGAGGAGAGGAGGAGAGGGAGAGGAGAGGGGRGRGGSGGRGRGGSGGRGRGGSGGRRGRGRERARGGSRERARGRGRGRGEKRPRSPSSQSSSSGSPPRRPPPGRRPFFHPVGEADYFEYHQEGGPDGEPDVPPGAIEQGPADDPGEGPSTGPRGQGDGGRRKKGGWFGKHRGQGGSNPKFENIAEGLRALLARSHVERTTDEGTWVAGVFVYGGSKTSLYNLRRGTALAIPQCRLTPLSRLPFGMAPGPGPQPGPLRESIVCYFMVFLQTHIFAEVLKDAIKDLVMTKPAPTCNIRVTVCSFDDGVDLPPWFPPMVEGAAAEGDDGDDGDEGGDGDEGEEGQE
Chain of Induced myeloid leukemia cell differentiation protein Mcl-1 (Q07820 whole entry): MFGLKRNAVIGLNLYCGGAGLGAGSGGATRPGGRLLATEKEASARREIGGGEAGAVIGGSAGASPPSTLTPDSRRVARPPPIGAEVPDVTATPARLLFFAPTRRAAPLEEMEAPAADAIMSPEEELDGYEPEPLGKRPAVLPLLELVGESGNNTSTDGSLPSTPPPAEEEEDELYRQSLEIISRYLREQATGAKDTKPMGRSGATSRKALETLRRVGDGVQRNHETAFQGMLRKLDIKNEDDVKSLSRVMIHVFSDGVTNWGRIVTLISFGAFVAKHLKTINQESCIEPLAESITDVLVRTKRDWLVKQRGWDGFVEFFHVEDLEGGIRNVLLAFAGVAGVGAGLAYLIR
Chain of Muscarinic acetylcholine receptor M1 (P08482 whole entry): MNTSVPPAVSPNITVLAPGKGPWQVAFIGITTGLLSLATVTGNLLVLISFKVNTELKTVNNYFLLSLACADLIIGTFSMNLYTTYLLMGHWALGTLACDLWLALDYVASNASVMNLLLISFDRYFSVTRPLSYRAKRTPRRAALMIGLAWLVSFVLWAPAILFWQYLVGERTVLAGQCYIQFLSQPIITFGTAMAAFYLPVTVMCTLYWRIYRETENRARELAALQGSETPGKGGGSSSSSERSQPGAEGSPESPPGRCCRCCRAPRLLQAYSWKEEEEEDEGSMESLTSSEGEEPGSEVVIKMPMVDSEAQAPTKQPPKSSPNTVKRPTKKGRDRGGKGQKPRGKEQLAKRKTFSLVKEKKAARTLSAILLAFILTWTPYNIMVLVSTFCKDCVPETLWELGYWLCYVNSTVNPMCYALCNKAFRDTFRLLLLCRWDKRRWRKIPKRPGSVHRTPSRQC

Structure (SMILES): COc1ccccc1OC(=O)c1cc2ccccc2s1
- IC50 (NADPH oxidase 1 [1]): > 17 µM (not active)

Structure (SMILES): Cn1cc(-c2ccc(CN3C(=O)C(=O)c4ccccc43)cc2)cn1
- EC50 [2]: 2.71 µM (active)
- EC50 [3]: 2.71 µM (active)
- EC50 [4]: 2.42 µM (active)

Structure (SMILES): CC(=O)Nc1ccc(S(=O)(=O)N2CCN(Cc3nc(O)c4c(C)c(C)sc4n3)CC2)cc1
- IC50 [5]: > 148 µM (not active)
- IC50 [6]: > 111 µM (not active)

Structure (SMILES): Cc1ccc(CN(Cc2cc3cc(C)ccc3[nH]c2=O)C(=O)N2CCOCC2)cc1
- EC50 (Estrogen receptor): 12.6 µM (not active)

Structure (SMILES): CCN(CC)c1ccc(NC(=O)Nc2ccc(C(C)=O)cc2)cc1
- IC50 [7]: 4.48 µM (not active)
- IC50 (NADPH oxidase 1 [8]): 0.252 µM (active)

Structure (SMILES): CCCCC(=O)N/N=C/c1ccc(N2CCOCC2)c([N+](=O)[O-])c1
- IC50 [9]: 26.7 µM (not active)
- IC50 [10]: 16.3 µM (not active)

Structure (SMILES): O=C1/C(=C/c2ccc(O)c(O)c2)SC(=S)N1Nc1ccccc1
- EC50 [11]: > 35.4 µM (not active)
- EC50 (HEK293): > 35.4 µM (not active)
- AC50 [12]: 1.49 µM (active)
- EC50 [13]: 26.6 µM (not active)
- EC50 [14]: > 38 µM (not active)
- EC50 [15]: 16.2 µM (active)
- EC50 [16]: > 11.8 µM (not active)
- IC50 [17]: 1.53 µM (active)
- EC50 [18]: > 35.4 µM (not active)
- EC50 [19]: 39.2 µM (active)
- IC50 (Nonstructural protein 1): 31.6 µM (active)
- EC50 [20]: 41.6 µM (active)
